Test results reported in patent US9206191B2, “Indazoles for the treatment and prophylaxis of respiratory syncytial virus infection” (Hoffmann-La Roche Inc., priority 2012, dated 2015).
Values belong to the compound of their own block, whether it stands above or below them.

Experiments:
[1] = single dose PK in male ICR mouse (IV and PO); assay type: in vivo; settings: male ICR mice; for AUC(0-t) / half-life: mouse, plasma
Protocol: The single dose PK in male ICR mouse was performed to assess their pharmacokinetic properties. Two groups of animals were dosed via either bolus intravenous (IV) or oral gavage (PO) of the respective compound. The animals for oral administration were fasted overnight prior to dosing and food was resumed 4 hours postdose. Blood samples (approximately 400 μL) were collected via cardiac puncture after euthanasia by carbon dioxide inhalation at 2 min, 5 min, 15 min, 30 min, 1 h, 2 h, 4 h, 6 h, 8 h, and 24 h postdose for IV group, and at 5 min, 15 min, 30 min, 1 h, 2 h, 4 h, 6 h, 8 h, and 24 h postdose for PO group. Blood samples were placed into tubes containing sodium heparin and centrifuged at 8000 rpm for 6 minutes at 4° C. to separate plasma from the samples. Following centrifugation, the resulting plasma was transferred to clean tubes for bioanalysis on LC/MS/MS. The pharmacokinetic parameters were calculated using non-compartmental module of WinNonlin® Professional 5.2.

RSV Long strain = assay: Viral Cytopathic Effect (CPE) Assay; assay type: cell-based; settings: human respiratory syncytial virus, 144 h, cell viability after 6 days, Cell Counting kit-8
RSV = settings: Phase III clinical trials; cited from earlier work
RSV infection = settings: intramuscularly at 15 mg/kg once a month for the duration of RSV season; selected infants; cited from earlier work

Compound: CS(=O)(=O)c1nn(Cc2nc3cc(Cl)ccc3n2CCC(F)(F)F)c2cnccc12 [Example 2-21, 1-{[5-Chloro-1-(3,3,3-trifluoropropyl)-1H-benzimidazol-2-yl]methyl}-3-(methylsulfonyl)-1H-pyrazolo[3,4-c]pyridine]
CLz ([1]; IV (1.65 mg/Kg)): 10.6 mL/min/kg | F ([1]; PO (8.27 mg/kg)): 37.1% | AUC(0-t) ([1]; IV (1.65 mg/Kg)): 2590 ng·h/mL | half-life ([1]; IV (1.65 mg/Kg)): 2.82 h | AUC(0-t) ([1]; PO (8.27 mg/kg)): 4800 ng·h/mL | half-life ([1]; PO (8.27 mg/kg)): 3.16 h | EC50 (RSV Long strain): 19.1 nM

Compound: CS(=O)(=O)c1nn(Cc2nc3cc(Cl)ccc3n2CC2COC2)c2cnccc12 [Example 2-22, 1-{[5-Chloro-1-(oxetan-3-ylmethyl)-1H-benzimidazol-2-yl]methyl}-3-(methylsulfonyl)-1H-pyrazolo[3,4-c]pyridine]
CLz ([1]; IV (1 mg/Kg)): 16.9 mL/min/kg | F ([1]; PO (12.2 mg/kg)): 23.8% | AUC(0-t) ([1]; IV (1 mg/Kg)): 976 ng·h/mL | half-life ([1]; IV (1 mg/Kg)): 1.55 h | AUC(0-t) ([1]; PO (12.2 mg/kg)): 2430 ng·h/mL | half-life ([1]; PO (12.2 mg/kg)): 2.45 h | EC50 (RSV Long strain): 6 nM

Compound: CS(=O)(=O)c1nn(Cc2nc3cc(Cl)ccc3n2C2CNC(=O)C2)c2cnccc12 (stereo not drawn) [Example 7, 4-(5-Chloro-2-{[3-(methylsulfonyl)-1H-pyrazolo[3,4-c]pyridin-1-yl]methyl}-1H-benzimidazol-1-yl)pyrrolidin-2-one]
EC50 (RSV Long strain): 8.43 nM

Compound: CS(=O)(=O)c1nn(Cc2nc3cc(Cl)ccc3n2C2CNC3(COC3)C2)c2cnccc12 (stereo not drawn) [Example 8, 1-{[5-Chloro-1-(2-oxa-5-azaspiro[3.4]oct-7-yl)-1H-benzimidazol-2-yl]methyl}-3-(methanesulfonyl)-1H-pyrazolo[3,4-c]pyridine]
EC50 (RSV Long strain): 19.4 nM

Compound: CS(=O)(=O)c1nn(Cc2nc3cc(Cl)ccc3n2[C@H]2C[C@H](CO)C2)c2cnccc12 [Example 11, [trans-3-(5-chloro-2-{[3-(methylsulfonyl)-1H-pyrazolo[3,4-c]pyridin-1-yl]methyl}-1H-benzimidazol-1-yl)cyclobutyl]methanol]
EC50 (RSV Long strain): 3 nM

Compound: CS(=O)(=O)c1nn(Cc2nc3cc(Cl)cc(F)c3n2[C@@H]2CCS(=O)(=O)C2)c2cnccc12 [Example 12, 1-({5-chloro-1-[(3R)-1,1-dioxidotetrahydrothiophen-3-yl]-7-fluoro-1H-benzimidazol-2-yl}methyl)-3-(methylsulfonyl)-1H-pyrazolo[3,4-c]pyridine]
EC50 (RSV Long strain): 2 nM

Compound: [2H]C([2H])(O)CCn1c(Cn2nc(S(C)(=O)=O)c3ccncc32)nc2cc(Cl)ccc21 [Example 13, 3-(5-chloro-2-{[3-(methylsulfonyl)-1H-pyrazolo[3,4-c]pyridin-1-yl]methyl}-1H-benzimidazol-1-yl)(1,1-^2H2)propan-1-ol]
EC50 (RSV Long strain): 3 nM

Compound: CC(O)(CCn1c(Cn2nc(S(C)(=O)=O)c3ccncc32)nc2cc(Cl)ccc21)C(F)(F)F (stereo not drawn) [Example 14, 4-(5-chloro-2-{[3-(methylsulfonyl)-1H-pyrazolo[3,4-c]pyridin-1-yl]methyl}-1H-benzimidazol-1-yl)-1,1,1-trifluoro-2-methylbutan-2-ol]
EC50 (RSV Long strain): 2.8 nM

Compound: motavizumab: A newer version monoclonal antibody, designed as potential replacement of palivizumab
benefit over palivizumab (RSV): failed to show additional benefit over palivizumab

Compound: palivizumab: a humanized monoclonal antibody against RSV fusion (F) protein approved for prophylaxis in high-risk infants
reduction of hospitalization rate caused by RSV infection (RSV infection): 45-55%

The remaining lines, values ahead:

CLz ([1]; IV (2 mg/kg)): 43.4 mL/min/kg | F ([1]; PO (6 mg/kg)): 46.0% | AUC(0-t) ([1]; IV (2 mg/kg)): 760 ng·h/mL | half-life ([1]; IV (2 mg/kg)): 1.26 h | AUC(0-t) ([1]; PO (6 mg/kg)): 1050 ng·h/mL | half-life ([1]; PO (6 mg/kg)): 0.831 h | EC50 (RSV Long strain): 5 nM
Compound: CS(=O)(=O)c1nn(Cc2nc3cc(Cl)ccc3n2CCCC(F)(F)F)c2cnccc12 [Example 4-3, 1-{[5-Chloro-1-(4,4,4-trifluorobutyl)-1H-benzimidazol-2-yl]methyl}-3-(methylsulfonyl)-1H-pyrazolo[3,4-c]pyridine]

EC50 (RSV Long strain): 6.07 nM
Compound: CCC(=O)N1CC[C@@H](n2c(Cn3nc(S(C)(=O)=O)c4ccccc43)nc3cc(Cl)ccc32)C1 [Example 6-3, 1-[(3R)-3-(5-Chloro-2-{[3-(methylsulfonyl)-1H-indazol-1-yl]methyl}-1H-benzimidazol-1-yl)pyrrolidin-1-yl]propan-1-one]

EC50 (RSV Long strain): 4 nM
Compound: CC(C)C(=O)N1CC[C@@H](n2c(Cn3nc(S(C)(=O)=O)c4ccncc43)nc3cc(Cl)ccc32)C1 [Example 6-4, 1-[(3R)-3-(5-Chloro-2-{[3-(methylsulfonyl)-1H-pyrazolo[3,4-c]pyridin-1-yl]methyl}-1H-benzimidazol-1-yl)pyrrolidin-1-yl]-2-methylpropan-1-one]

EC50 (RSV Long strain): 13 nM
Compound: CC(C)(O)C(=O)N1CC[C@@H](n2c(Cn3nc(S(C)(=O)=O)c4ccncc43)nc3cc(Cl)ccc32)C1 [Example 6-5, 1-[(3R)-3-(5-Chloro-2-{[3-(methylsulfonyl)-1H-pyrazolo[3,4-c]pyridin-1-yl]methyl}-1H-benzimidazol-1-yl)pyrrolidin-1-yl]-2-hydroxy-2-methylpropan-1-one]

EC50 (RSV Long strain): 3 nM
Compound: CS(=O)(=O)c1nn(Cc2nc3cc(Cl)ccc3n2[C@@H]2CCN(S(C)(=O)=O)C2)c2cnccc12 [Example 6-6, 1-({5-Chloro-1-[(3R)-1-(methylsulfonyl)pyrrolidin-3-yl]-1H-benzimidazol-2-yl}methyl)-3-(methylsulfonyl)-1H-pyrazolo[3,4-c]pyridine]

EC50 (RSV Long strain): 3.68 nM
Compound: CS(=O)(=O)c1nn(Cc2nc3cc(Cl)ccc3n2[C@@H]2CCN(CCO)C2)c2cnccc12 [Example 6-7, 2-[(3R)-3-(5-Chloro-2-{[3-(methylsulfonyl)-1H-pyrazolo[3,4-c]pyridin-1-yl]methyl}-1H-benzimidazol-1-yl)pyrrolidin-1-yl]ethanol]

EC50 (RSV Long strain): 3.71 nM
Compound: CS(=O)(=O)CCn1c(Cn2nc(S(C)(=O)=O)c3ccncc32)cc2cc(Cl)ccc21 [Example 9-1, 1-({5-Chloro-1-[2-(methylsulfonyl)ethyl]-1H-indol-2-yl}methyl)-3-(methylsulfonyl)-1H-pyrazolo[3,4-c]pyridine]

EC50 (RSV Long strain): 8.12 nM
Compound: CS(=O)(=O)CCCn1c(Cn2nc(S(C)(=O)=O)c3ccncc32)cc2cc(Cl)ccc21 [Example 9-2, 1-({5-Chloro-1-[3-(methylsulfonyl)propyl]-1H-indol-2-yl}methyl)-3-(methylsulfonyl)-1H-pyrazolo[3,4-c]pyridine]

EC50 (RSV Long strain): 7.21 nM
Compound: CS(=O)(=O)CCn1c(Cn2nc(S(C)(=O)=O)c3ccncc32)cc2cc(Cl)cc(F)c21 [Example 9-3, 1-({5-Chloro-7-fluoro-1-[2-(methylsulfonyl)ethyl]-1H-indol-2-yl}methyl)-3-(methylsulfonyl)-1H-pyrazolo[3,4-c]pyridine]

EC50 (RSV Long strain): 227 nM
Compound: C[C@H](c1nc2cc(Cl)ccc2n1CCC(F)(F)F)n1nc(S(C)(=O)=O)c2ccncc21 [Example 15-1, 1-{(1R)-1-[5-chloro-1-(3,3,3-trifluoropropyl)-1H-benzimidazol-2-yl]ethyl}-3-(methylsulfonyl)-1H-pyrazolo[3,4-c]pyridine]

EC50 (RSV Long strain): 68 nM
Compound: C[C@@H](c1nc2cc(Cl)ccc2n1CCC(F)(F)F)n1nc(S(C)(=O)=O)c2ccncc21 [Example 15-2, 1-{(1S)-1-[5-Chloro-1-(3,3,3-trifluoropropyl)-1H-benzimidazol-2-yl]ethyl}-3-(methylsulfonyl)-1H-pyrazolo[3,4-c]pyridine]
